Source: ChEMBL document CHEMBL1131559, “Novel quinolone derivatives as potent antibacterials” (1998)
In brackets after ≈: the same amount, converted by molar mass.

Columns and labels:
Escherichia coli [1] = assay: Compound was evaluated for in vitro antibacterial activity against gram negative organism Escherichia coli strain DRCC 134; assay type: functional
Pseudomonas aeruginosa [2] = assay: Compound was evaluated for in vitro antibacterial activity against gram negative organism Pseudomonas aeruginosa strain DRCC 131; assay type: functional
Klebsiella pneumoniae [3] = assay: Compound was evaluated for in vitro antibacterial activity against gram negative organism Klebsiella pneumoniae strain DRCC 136; assay type: functional
[4] = system: Staphylococcus epidermidis; assay: Compound was evaluated for in vitro antibacterial activity against gram positive organism Staphylococcus epidermidis strain ATCC 12228; assay type: functional
Enterococcus faecalis [5] = assay: Compound was evaluated for in vitro antibacterial activity against gram positive organism Streptococcus faecalis strain ATCC 29212; assay type: functional
Pseudomonas aeruginosa [6] = assay: Compound was evaluated for in vitro antibacterial activity against gram negative organism Pseudomonas aeruginosa strain DRCC 135; assay type: functional
Escherichia coli [7] = assay: Compound was evaluated for in vitro antibacterial activity against gram negative organism Escherichia coli strain ATCC 35218; assay type: functional
Enterococcus faecalis [8] = assay: Compound was evaluated for in vitro antibacterial activity against gram positive organism Streptococcus faecalis strain ATCC 49384; assay type: functional
Enterococcus faecalis [9] = assay: Compound was evaluated for in vitro antibacterial activity against gram positive organism Streptococcus faecalis strain ATCC 51299; assay type: functional
Staphylococcus aureus [10] = assay: Compound was evaluated for in vitro antibacterial activity against gram positive organism Staphylococcus aureus strain ATCC 33591; assay type: functional
Escherichia coli [11] = assay: Compound was evaluated for in vitro antibacterial activity against gram negative organism Escherichia coli strain DRCC 133; assay type: functional
Klebsiella pneumoniae [12] = assay: Compound was evaluated for in vitro antibacterial activity against gram negative organism Klebsiella pneumoniae strain ATCC 10031; assay type: functional
Pseudomonas aeruginosa [13] = assay: Compound was evaluated for in vitro antibacterial activity against gram negative organism Pseudomonas aeruginosa strains ATCC 27853; assay type: functional
Staphylococcus aureus [14] = assay: Compound was evaluated for in vitro antibacterial activity against gram positive organism Staphylococcus aureus strain ATCC 6538P; assay type: functional
Escherichia coli [15] = assay: Compound was evaluated for in vitro antibacterial activity against gram negative organism Escherichia coli strain DRCC 091; assay type: functional
Salmonella typhimurium = assay: Compound was evaluated for in vitro antibacterial activity against gram negative organism Salmonella Typhimurium MTCC 98; assay type: functional, Salmonella enterica subsp. enterica serovar Typhimurium; settings: Salmonella enterica
[16] = system: Salmonella enterica subsp. enterica serovar Abony; assay: Compound was evaluated for in vitro antibacterial activity against gram negative organism Salmonella abony strain NCIM 2257; assay type: functional
Staphylococcus aureus [17] = assay: Compound was evaluated for in vitro antibacterial activity against gram positive organism Staphylococcus aureus strain ATCC 29213; assay type: functional
Streptococcus pyogenes = assay: Compound was evaluated for in vitro antibacterial activity against gram positive organism Streptococcus pyogenes strain DRCC 092; assay type: functional
Staphylococcus aureus [18] = assay: Compound was evaluated for in vitro antibacterial activity against gram positive organism Staphylococcus aureus strain MTCC 737; assay type: functional
Pseudomonas fluorescens [19] = assay: Compound was evaluated for in vitro antibacterial activity against gram negative organism Pseudomonas fluorescence strain DRCC 008; assay type: functional
Salmonella typhi = assay: Compound was evaluated for in vitro antibacterial activity against gram negative organism Salmonella typhi strain MTCC 531; assay type: functional, Salmonella enterica subsp. enterica serovar Typhi; settings: Salmonella enterica
Pseudomonas aeruginosa [20] = assay: Compound was evaluated for in vitro antibacterial activity against gram negative organism Pseudomonas aeruginosa strain MTCC 1688; assay type: functional
Pseudomonas aeruginosa [21] = assay: Compound was evaluated for in vitro antibacterial activity against gram negative organism Pseudomonas aeruginosa strain DRCC 137; assay type: functional
Escherichia coli [22] = assay: Compound was evaluated for in vitro antibacterial activity against gram negative organism Escherichia coli strain ATCC 25922; assay type: functional
Klebsiella pneumoniae [23] = assay: Compound was evaluated for in vitro antibacterial activity against gram negative organism Klebsiella pneumoniae strain DRCC 132; assay type: functional
Staphylococcus aureus [24] = assay: Compound was evaluated for in vitro antibacterial activity against gram positive organism Staphylococcus aureus strain ATCC 33592; assay type: functional
Pseudomonas aeruginosa [25] = assay: Compound was evaluated for in vitro antibacterial activity against gram negative organism Pseudomonas aeruginosa strainsATCC 27853; assay type: functional; settings: ATCC 27853
Enterococcus faecalis [26] = assay: Compound was evaluated for in vitro antibacterial activity against gram positive organism Streptococcus faecalis strainATCC 49384; assay type: functional; settings: ATCC 49384
Staphylococcus aureus [27] = assay: Compound was evaluated for in vitro antibacterial activity against gram positive organism Staphylococcus aureus strainATCC 6538P; assay type: functional; settings: ATCC 6538P
Pseudomonas fluorescens [28] = assay: Compound was evaluated for in vitro antibacterial activity against gram negative organism Pseudomonas fluorescence strain NCIMB 10586; assay type: functional

Structure (SMILES)	MIC (Escherichia coli [1]) [µg/mL]	MIC (Pseudomonas aeruginosa [2]) [µg/mL]	MIC (Klebsiella pneumoniae [3]) [µg/mL]	MIC [4] [µg/mL]	MIC (Enterococcus faecalis [5]) [µg/mL]	MIC (Pseudomonas aeruginosa [6]) [µg/mL]	MIC (Escherichia coli [7]) [µg/mL]	MIC (Staphylococcus aureus [10]) [µg/mL]	MIC (Escherichia coli [11]) [µg/mL]	MIC (Klebsiella pneumoniae [12]) [µg/mL]	MIC (Escherichia coli [15]) [µg/mL]	MIC (Salmonella typhimurium) [µg/mL]	MIC [16] [µg/mL]	MIC (Staphylococcus aureus [17]) [µg/mL]	MIC (Staphylococcus aureus [18]) [µg/mL]	MIC (Pseudomonas fluorescens [19]) [µg/mL]	MIC (Salmonella typhi) [µg/mL]	MIC (Pseudomonas aeruginosa [20]) [µg/mL]	MIC (Klebsiella pneumoniae [23]) [µg/mL]	MIC (Staphylococcus aureus [24]) [µg/mL]	also measured
CN[C@@H]1CN(c2cc3c(cc2F)c(=O)c(C(=O)O)cn3-c2ccccc2F)C[C@H]1NC.O=C(O)C(F)(F)F	> 8	0.5	2	2	4	> 8	0.5	1	> 8	0.06	> 8	1	1	4	4	> 8	4	4	> 8	4	MIC (Enterococcus faecalis [8]): 4 µg/mL; MIC (Enterococcus faecalis [9]): 2 µg/mL; MIC (Pseudomonas aeruginosa [13]): 4 µg/mL; MIC (Staphylococcus aureus [14]): 0.5 µg/mL; MIC (Streptococcus pyogenes): 0.03 µg/mL; MIC (Pseudomonas aeruginosa [21]): > 8 µg/mL; MIC (Escherichia coli [22]): 1 µg/mL
N[C@@H]1CN(c2cc3c(cc2F)c(=O)c(C(=O)O)cn3C2CC2)C[C@H]1N.O=C(O)C(F)(F)F	> 8	> 8	4	2	2	> 8	1	2	> 8	0.125	> 8	> 8	2	2	2	1	1	0.5	> 8	8	MIC (Pseudomonas aeruginosa [25]): 4 µg/mL; MIC (Enterococcus faecalis [26]): 4 µg/mL; MIC (Enterococcus faecalis [9]): 1 µg/mL; MIC (Staphylococcus aureus [27]): 2 µg/mL; MIC (Streptococcus pyogenes): 1 µg/mL; MIC (Pseudomonas aeruginosa [21]): > 8 µg/mL; MIC (Escherichia coli [22]): 0.25 µg/mL
CCn1cc(C(=O)O)c(=O)c2cc(F)c(N3C[C@@H](N)[C@H](N)C3)c(F)c21.Cl	> 8	> 8	> 8	2	4	> 8	1	2	> 8	0.125	> 8	0.5	8	2	2	4	1	1	> 8	4	MIC (Enterococcus faecalis [8]): 4 µg/mL; MIC (Enterococcus faecalis [9]): 2 µg/mL; MIC (Pseudomonas aeruginosa [13]): > 8 µg/mL; MIC (Staphylococcus aureus [14]): 2 µg/mL; MIC (Streptococcus pyogenes): 2 µg/mL; MIC (Pseudomonas aeruginosa [21]): > 8 µg/mL; MIC (Escherichia coli [22]): 0.5 µg/mL
CN[C@@H]1CN(c2c(F)c(N)c3c(=O)c(C(=O)O)cn(C4CC4)c3c2F)C[C@H]1NC.Cl	> 8	1	0.5	1	1	> 8	0.5	0.25	> 8	0.06	> 8	0.125	0.25	0.25	0.25	> 8	0.25	0.5	> 8	0.25	MIC (Enterococcus faecalis [8]): 1 µg/mL; MIC (Enterococcus faecalis [9]): 0.25 µg/mL; MIC (Pseudomonas aeruginosa [13]): 4 µg/mL; MIC (Staphylococcus aureus [14]): 0.5 µg/mL; MIC (Streptococcus pyogenes): 0.03 µg/mL; MIC (Pseudomonas aeruginosa [21]): > 8 µg/mL; MIC (Escherichia coli [22]): 0.06 µg/mL
CN[C@@H]1CN(c2cc3c(cc2F)c(=O)c(C(=O)O)cn3C2CC2)C[C@H]1NC.Cl	> 8	2	0.5	0.5	2	> 8	0.25	1	> 8	0.06	> 8	0.5	1	1	1	> 8	0.5	2	> 8	0.5	MIC (Enterococcus faecalis [8]): 4 µg/mL; MIC (Enterococcus faecalis [9]): 0.25 µg/mL; MIC (Pseudomonas aeruginosa [13]): 4 µg/mL; MIC (Staphylococcus aureus [14]): 0.5 µg/mL; MIC (Streptococcus pyogenes): 0.06 µg/mL; MIC (Pseudomonas aeruginosa [21]): > 8 µg/mL; MIC (Escherichia coli [22]): 0.125 µg/mL
CN[C@@H]1CN(c2cc3c(cc2F)c(=O)c(C(=O)O)cn3-c2ccc(F)cc2)C[C@H]1NC.Cl	> 8	0.25	0.5	1	0.5	> 8	1	1	> 8	0.125	> 8	1	0.5	0.5	0.5	2	0.25	2	> 8	0.25	MIC (Enterococcus faecalis [8]): 0.5 µg/mL; MIC (Enterococcus faecalis [9]): 0.25 µg/mL; MIC (Pseudomonas aeruginosa [13]): 4 µg/mL; MIC (Staphylococcus aureus [14]): 0.5 µg/mL; MIC (Streptococcus pyogenes): 1 µg/mL; MIC (Pseudomonas aeruginosa [21]): 1 µg/mL; MIC (Escherichia coli [22]): 0.5 µg/mL
Cl.N[C@@H]1CN(c2cc3c(cc2F)c(=O)c(C(=O)O)cn3-c2ccc(F)cc2)C[C@H]1N	> 8	1	> 8	1	2	> 8	1	1	> 8	1	> 8	1	4	1	1	2	> 8	2	> 8	1	MIC (Enterococcus faecalis [8]): 1 µg/mL; MIC (Enterococcus faecalis [9]): 1 µg/mL; MIC (Pseudomonas aeruginosa [13]): 8 µg/mL; MIC (Staphylococcus aureus [14]): 1 µg/mL; MIC (Streptococcus pyogenes): 0.5 µg/mL; MIC (Pseudomonas aeruginosa [21]): > 8 µg/mL; MIC (Escherichia coli [22]): 1 µg/mL
CCn1cc(C(=O)O)c(=O)c2cc(F)c(N3C[C@@H](NC)[C@H](NC)C3)c(F)c21.Cl	> 8	> 8	8	2	4	> 8	1	1	> 8	0.5	> 8	1	8	4	4	4	1	1	> 8	4	MIC (Enterococcus faecalis [8]): 8 µg/mL; MIC (Enterococcus faecalis [9]): 2 µg/mL; MIC (Pseudomonas aeruginosa [13]): 8 µg/mL; MIC (Staphylococcus aureus [14]): 4 µg/mL; MIC (Streptococcus pyogenes): 4 µg/mL; MIC (Pseudomonas aeruginosa [21]): 8 µg/mL; MIC (Escherichia coli [22]): 0.5 µg/mL
O=C(O)c1cn(C2CC2)c2cc(N3CCNCC3)c(F)cc2c1=O [CIPROFLOXACIN]	> 8	> 8	1 (≈ 3.02 µM)	1 (≈ 3.02 µM)	0.125 (≈ 0.377 µM)	> 8	–	0.25 (≈ 0.754 µM)	> 8	0.03 (≈ 0.0905 µM)	> 8	0.25 (≈ 0.754 µM)	1 (≈ 3.02 µM)	2 (≈ 6.04 µM)	0.25 (≈ 0.754 µM)	0.5 (≈ 1.51 µM)	0.25 (≈ 0.754 µM)	0.06 (≈ 0.181 µM)	> 8	4 (≈ 12.1 µM)	MIC (Enterococcus faecalis [8]): 4 µg/mL (≈ 12.1 µM); MIC (Staphylococcus aureus [14]): 0.5 µg/mL (≈ 1.51 µM); MIC (Pseudomonas fluorescens [28]): > 8 µg/mL
CCn1cc(C(=O)O)c(=O)c2cc(F)c(N3CCNCC3)cc21 [NORFLOXACIN]	> 8	> 8	0.5 (≈ 1.57 µM)	1 (≈ 3.13 µM)	1 (≈ 3.13 µM)	> 8	0.125 (≈ 0.391 µM)	1 (≈ 3.13 µM)	> 8	0.03 (≈ 0.0939 µM)	> 8	0.5 (≈ 1.57 µM)	0.5 (≈ 1.57 µM)	4 (≈ 12.5 µM)	4 (≈ 12.5 µM)	0.25 (≈ 0.783 µM)	0.25 (≈ 0.783 µM)	0.125 (≈ 0.391 µM)	> 8	4 (≈ 12.5 µM)	MIC (Enterococcus faecalis [8]): 4 µg/mL (≈ 12.5 µM); MIC (Enterococcus faecalis [9]): 2 µg/mL (≈ 6.26 µM); MIC (Pseudomonas aeruginosa [13]): 4 µg/mL (≈ 12.5 µM); MIC (Staphylococcus aureus [14]): 1 µg/mL (≈ 3.13 µM); MIC (Streptococcus pyogenes): 2 µg/mL (≈ 6.26 µM); MIC (Pseudomonas fluorescens [28]): > 8 µg/mL; MIC (Pseudomonas aeruginosa [21]): 2 µg/mL (≈ 6.26 µM); MIC (Escherichia coli [22]): 0.03 µg/mL (≈ 0.0939 µM)
